Source: patent US20210330611A1, “THERAPY FOR NEUROLOGICAL DISEASES/DISORDERS” (priority 2020, published 2021)
Where two headings read alike, the source gives them in different places.

Key:
[1] = test system: fibrin-induced microglia activation; experiment: Image-based assay of fibrin-induced microglia activation (HTS and dose response); assay type: cell-based, rat; conditions: for inhibition at 10 µM: Rattus norvegicus, Microglia, read-out: Fibrin % inhibition
[2] = test system: primary rat microglia; experiment: Cell toxicity (dead cells, size <150 μm2) in LPS assay
[3] = test system: fibrin- and LPS-induced microglia activation; experiment: cells; assay type: cell-based, rat
[4] = test system: primary rat microglia; experiment: Cell toxicity (dead cells, size <150 μm2) in coated fibrin (cFib) assay;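 note: share of dead cells sized under 150 µm2 at 10 µM in fibrin-stimulated microglia HTS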
[5] = test system: LPS-induced microglia activation; experiment: Image-based assay of LPS-induced microglia activation (HTS and dose response); assay type: cell-based, rat; conditions: for inhibition at 10 µM: Rattus norvegicus, Microglia, read-out: LPS % inhibition
[6] = primary HTS, 10 μM, fibrin-stimulated primary microglia
[7] = primary HTS, 10 μM, LPS assay, dead cells size <150 μm2
[8] = primary HTS, 10 μM, fibrin assay, dead cells size <150 μm2
[9] = primary HTS, 10 μM, LPS-stimulated primary microglia
[10] = primary microglia HTS, fibrin stimulation, increased cell size (>800 μm^2) as marker of activation
[11] = primary microglia HTS, LPS stimulation, decreased size (<150 μm^2) as marker of toxicity
[12] = quadrant by fibrin and LPS inhibition in HTS of 1907 compounds
[13] = primary microglia HTS, fibrin stimulation, decreased size (<150 μm^2) as marker of toxicity
[14] = 48 h, primary microglia HTS, LPS stimulation, increased cell size (>800 μm^2) as marker of activation

Structure (SMILES)	Fibrin % inhibition [1, 6] [%]	LPS % cell toxicity [2, 7] [%]	Quadrant (FIG. 5b) ([3]; primary HTS, 10 μM)	Fibrin % cell toxicity [4, 8] [%]	LPS % inhibition [5, 9] [%]	inhibition at 10 µM [1, 6] [%]	inhibition at 10 µM [5, 9] [%]	inhibition at 10 µM [1, 10] [%]	LPS % cell toxicity [2, 11] [%]	Quadrant (FIG. 5b) [3, 12]	Fibrin % cell toxicity [4, 13] [%]	inhibition at 10 µM [5, 14] [%]
O=C1CCO1 [Beta-propiolactone, Propiolactone]	−12	0	Q4	1	8	–	–	–	–	–	–	–
CNCCc1ccccn1 [Betahistine]	–	0	Q4	1	–	-29	13	–	–	–	–	–
CC(=O)OCC(=O)[C@@]1(O)[C@@H](C)C[C@H]2[C@@H]3CCC4=CC(=O)C=C[C@]4(C)[C@@]3(F)[C@@H](O)C[C@@]21C [Betamethasone Acetate]	–	–	–	–	–	–	–	107	4	Q2	3	100
O=C(O)CCNC(=O)c1ccccc1 [Betamipron]	–	0	Q4	1	–	-6	14	–	–	–	–	–
CC(C)(Oc1ccc(CCNC(=O)c2ccc(Cl)cc2)cc1)C(=O)O [Bezafibrate]	–	0	Q4	0	–	-4	18	–	–	–	–	–
CC(C)(C)CC(C)(C)c1cc(Cc2cc(C(C)(C)CC(C)(C)C)cc(-n3nc4ccccc4n3)c2O)c(O)c(-n2nc3ccccc3n2)c1 [Bisoctrizole]	–	0	Q4	0	–	33	20	–	–	–	–	–
CC(C)NCC(O)COc1ccc(COCCOC(C)C)cc1 (stereo not shown) [Bisoprolol]	–	0	Q4	0	–	1	13	–	–	–	–	–
S=C=Nc1ccc(N=C=S)cc1 [Bitoscanate]	–	1	Q4	1	–	-9	3	–	–	–	–	–
Cc1cc2c(OCC(CNC(C)(C)C)OC(=O)c3ccccc3)cccc2[nH]1 (stereo not shown) [Bopindolol]	–	–	–	–	–	–	–	105	2	Q2	6	81
COc1ccccc1Oc1c(NS(=O)(=O)c2ccc(C(C)(C)C)cc2)nc(-c2ncccn2)nc1OCCO [Bosentan]	–	0	Q4	1	–	-14	10	–	–	–	–	–
CCN[C@H]1CN(CCCOC)S(=O)(=O)c2sc(S(N)(=O)=O)cc21 [Brinzolamide]	–	0	Q4	0	–	-3	5	–	–	–	–	–
